Here are results for six compounds from patent publication US20240132461A1, “FLAVONE DEAZA SPERMIDINE ANALOGUES AND THEIR USE TREATING CANCER” (FLORATEK PHARMA S.A., priority 2021, published 2024).

Where a name gives a salt, the structure may show the parent alone.

Series [1] deals with H69AR. The series can be described thus: Cell viability assay, resistant small cell lung carcinoma cell line H69AR. It counts as cell-based. The conditions noted are these: H69AR multiple drug resistant small cell lung carcinoma cell line. The protocol:
(§1) Antitumor activity of the compounds and doxorubicin as a positive control was assessed by using the CellTiter-Blue Cell Viability Assay (Promega, #G8082) or CellTiter-Glow® Luminescent Cell Viability assay (Promega # G7572) according to the manufacturer's instructions. The compounds were tested at 5 or 6 concentrations in half-log increments (highest concentration 30 μM-100 μM) in duplicate or triplicate well conditions.
(§2) Tumor cells were grown at 37° C. in a humidified atmosphere with 5% CO2 in RPMI 1640 or DMEM medium, supplemented with 10% (v/v) fetal calf serum and 50 μg/ml gentamicin for up to 20 passages, and were passaged once or twice weekly. Cells were harvested using TrypLE or PBS buffer containing 1 mM EDTA, and the percentage of viable cells is determined using a CASY Model TT cell counter (OMNI Life Science). Cells were harvested from exponential phase cultures, counted and plated in 96 well flat-bottom microtiter plates at a cell density depending on the cell line's growth rate (4,000-20,000 cells/well depending on the cell line's growth rate, up to 60,000 for hematological cancer cell lines) in RPMI 1640 or DMEM medium supplemented with 10% (v/v) fetal calf serum and 50 μg/ml gentamicin (140 μl/well). Cultures were incubated at 37° C. and 5% CO2 in a humidified atmosphere. After 24 h, 10 μl of test compounds or control medium are added, and left on the cells for another 72 h. Compounds were serially diluted in DMSO, transferred in cell culture medium, and added to the assay plates. The DMSO concentration was kept constant at <0.3% v/v across the assay plate. Viability of cells was quantified by the CellTiter-Blue® cell viability assay (Promega G8081) or CellTiter-Glow® Luminescent Cell Viability assay (Promega # G7572). Fluorescence (FU) was measured by using the EnSpire® multimode plate reader (Perkin Elmer) (excitation λ=570 nm, emission λ=600 nm) or luminescent detection of ATP in viable cells was used as parameter for proliferation. Luminescence was measured with the microplate luminometer (Promega or Perkin Elmer).
(§3) Sigmoidal concentration-response curves were fitted to the data points (test-versus-control, T/C values) obtained for each tumor model using 4 parameter non-linear curve fit (Charles River DRS Datawarehouse Software) or with GraphPad prism 5.02 software. IC50 values are reported as absolute IC50 values, being the concentration of test compound at the intersection of the concentration-response curves with T/C=50%
The multiple drug resistant cell line H69AR obtained from ATCC, was established from NCI-H69 cells that were grown in the presence of increasing concentrations of adriamycin (doxorubicin). The H69AR cell line is approximately 50-fold resistant to adriamycin as compared to the parental NCI-H69 cell line. SND141, SND142, SND143, SND146, SND147 and SND148 inhibited the resistant cell line H69AR with IC50s below 5 μM, as presented in Table 8.

The next series has as its system Panc-1. The series can be described thus: Cell viability assay, pancreatic carcinoma cell line Panc-1. The class given is cell-based. The following applies: Homo sapiens; Panc-1 pancreatic carcinoma cell line. As to the method:
as §1, §2, §3

The next series has as its system MIA-Pa-Ca-2. Kind of series: Cell viability assay, pancreatic carcinoma cell line MIA-Pa-Ca-2. It counts as cell-based. The conditions noted are these: Homo sapiens, MIA PaCa-2; MIA-Pa-Ca-2 pancreatic carcinoma cell line. As to the method:
as §1, §2, §3

The test system of a further series is RXF 486. Kind of series: Cell viability assay, MDR renal carcinoma patient derived line RXF 486. It counts as cell-based. The following applies: RXF 486 MDR renal carcinoma patient derived line. The protocol:
as §1
(§4) Tumor cells were grown at 37° C. in a humidified atmosphere with 5% CO2 in RPMI 1640 or DMEM medium, supplemented with 10% (v/v) fetal calf serum and 50 μg/ml gentamicin for up to 20 passages, and were passaged once or twice weekly. Cells were harvested using TrypLE or PBS buffer containing 1 mM EDTA, and the percentage of viable cells is determined using a CASY Model TT cell counter (OMNI Life Science). Cells were harvested from exponential phase cultures, counted and plated in 96 well flat-bottom microtiter plates at a cell density depending on the cell line's growth rate (4,000-20,000 cells/well depending on the cell line's growth rate, up to 60,000 for hematological cancer cell lines) in RPMI 1640 or DMEM medium supplemented with 10% (v/v) fetal calf serum and 50 μg/ml gentamicin (140 μl/well). […] Viability of cells was quantified by the CellTiter-Blue® cell viability assay (Promega G8081) or CellTiter-Glow® Luminescent Cell Viability assay (Promega # G7572). […]

Series [2] in a line: In vivo maximum tolerated dose in NOG mice. The following applies: for tolerability at the highest dose administered: 8-10 mg/kg i.p., daily or every other day over 8 days; for MTD at 8 days: mouse, in vivo, ip, repeated i.p. administration, MTD not reached, read-out: maximum tolerated dose (MTD), estimated. The protocol: In order to evaluate the general toxicity of selected SND compounds in an animal model, a maximum tolerated dose (MTD) in NOG mice has been undertaken. Three mice per group were treated daily or every other day over 8 days at various doses between 5 mg/kg and 10 mg/kg. Administration of the compounds was i.p. A stock solution of the compounds (40 mg/ml in DMSO) was prepared and frozen at −20° C. in aliquots for each treatment. […] Body weights were measured before each treatment. Mice were further observed for 1 week after the last treatment.

For series [3], the system named is pancreatic carcinoma cell. The series can be described thus: Cell viability assay, pancreatic carcinoma cell lines (summary). It counts as cell-based. The conditions noted are these: summary of Table 12; read-out: IC50s, pancreatic carcinoma cell growth. As to the method:
as §1, §2, §3

Series [4] has as its system H69AR. The conditions noted are these: H69AR from ATCC, vs parental NCI-H69; cited from earlier work.
The test system of the next series is SC6. Kind of series: PDX cytotoxicity assay, small cell lung carcinoma PDX SC6. The class given is cell-based. As to the method: (§5) PDX-derived cell cultures were obtained from tumors explanted from mice and isolated by mechanical and enzymatic dissociation. […] Cells were harvested and seeded in 96-wells plates at a density of 1.25 to 5×10^3 cells/well for cytotoxicity assays. Cells were incubated 48 h at 37° C. prior to addition of test molecules and vehicle (DMSO, 0.1%) at desired final concentrations. Cell viability was assessed before drugs' addition (T0) and 5 days after test molecules addition by measuring ATP cell content using CellTiter-Glo® Luminescent Cell Viability Assay (Promega) according to the manufacturer's instructions. Luciferase activity was measured on a luminometer (PerkinElmer® EnVision™). Each concentration of compounds was tested in triplicate.
(§6) Viability was calculated as a percentage of ATP value compared to vehicle treated controls.
(§7) For PDX primary cell cultures, the tumour tissue was washed with PBS containing antibiotic-antimycotic and non-tumour tissue and necrotic tumour tissues were separated. The tumour tissue was transferred to a new dish and cut into 1˜2 mm^3 fragments, resuspended in RPMI-1640 medium and centrifuged at 1,200 rpm for 6 min at room temperature. The pelleted material was resuspended with 15 mL of Tumour Cell Digestion Solution and incubated at 37° C. for 1 hour with agitation. […]

The subject of another series is CH-17-0098. Kind of series: PDX cytotoxicity assay, bile duct PDX CH-17-0098. The class given is cell-based. As to the method: as §5, §6, §7
A further series relates to IMR-5-75. The series can be described thus: Cell viability assay, brain carcinoma cell line IMR-5-75. The class given is cell-based. The conditions noted are these: IMR-5-75 brain carcinoma cell line. As to the method:
as §1, §4

Another series deals with NCI-H1299. The series can be described thus: Cell viability assay, non-small cell lung carcinoma cell line NCI-H1299. It counts as cell-based. The following applies: Homo sapiens. As to the method:
as §1, §2, §3

The test system of another series is SK-OV-3. Kind of series: Cell viability assay, ovarian carcinoma cell line SK-OV-3. The class given is cell-based. As to the method:
as §1, §4

The subject of a further series is MeWo. Kind of series: Cell viability assay, melanoma cell line MeWo. The class given is cell-based. The conditions noted are these: Homo sapiens. As to the method: as §1
as §2, with “Elmer). […]” for “Elmer).”

The next series relates to A375. The series can be described thus: Cell viability assay, melanoma cell line A375. The class given is cell-based. The conditions noted are these: Homo sapiens, A-375. The protocol: as §1, §2, §3
For another series, the system named is lung carcinoma cell. Kind of series: Cell viability assay, lung carcinoma cell lines (summary). The class given is cell-based. The conditions noted are these: summary of Tables 7A-E; read-out: IC50s, lung carcinoma cell growth. The protocol: as §1, §2, §3
A further series deals with melanoma cell lines. Kind of series: Cell viability assay, melanoma cell lines (summary). It counts as cell-based. The following applies: summary of Tables 14A and 14B; read-out: IC50s, melanoma cell lines growth. The protocol:
as §1, §2, §3

Another series has as its system CALU-6. Kind of series: Cell viability assay, non-small cell lung carcinoma cell line CALU-6. The class given is cell-based. The conditions noted are these: Homo sapiens; CALU-6 non-small cell lung carcinoma cell line. The protocol: as §1, §2, §3

Regarding `COc1c(O)ccc2c(=O)cc(-c3ccc(CCCCN4CCCC4)cc3)oc12` [SND143, 7-hydroxy-8-methoxy-2-(4-(4-(pyrrolidin-1-yl)butyl)phenyl)-4H-chromen-4-one], the IC50 is 3.3 µM in the series on H69AR [1]; less than 5 µM with H69AR [1] (Homo sapiens, H69AR); 6.09 µM with Panc-1; 4.96 µM in the series with MIA-Pa-Ca-2; 1.3 µM in the series with RXF 486; less than 10 µM in series [3]. Moreover, in series [2], the “tolerability at the highest dose administered” value was “well tolerated”. For the same compound, the maximal tolerated dose (MTD) at 8 days in series [2] is more than 10 mg/kg.
For `COc1cccc2c1C(=O)c1c(O)c3c(c(O)c1C2=O)C[C@@](O)(C(=O)CO)C[C@@H]3O[C@H]1C[C@H](N)[C@H](O)[C@H](C)O1` [adriamycin], in the series on H69AR [4], the “resistance of H69AR compared to the parental NCI-H69 cell line” value is given as “approximately 50 fold”.
For `CN(CCCc1ccc(-c2cc(=O)c3ccc(O)c(O)c3o2)cc1)CCN1CCCCC1` [SND171, 7,8-Dihydroxy-2-(4-(3-(methyl(2-(piperidin-1-yl)ethyl)amino)propyl)phenyl)-4H-chromen-4-one dihydrochloride], the IC50 with SC6 was found to be 15 µM.
Turning to `COc1c(O)ccc2c(=O)cc(-c3ccc(CCCCN4CCCCC4)cc3)oc12` [SND148, 7-hydroxy-8-methoxy-2-(4-(4-(piperidin-1-yl)butyl)phenyl)-4H-chromen-4-one], the IC50 is 2.5 µM in the series with H69AR [1]; less than 5 µM in the series on H69AR [1] (Homo sapiens, H69AR); 2.3 µM with Panc-1; 2.21 µM with MIA-Pa-Ca-2; 13.9 µM in the series on CH-17-0098; less than 10 µM in series [3]. Also, the “tolerability at the highest dose administered” value in [2] is recorded as “well tolerated”. In series [2], the MTD at 8 days was more than 10 mg/kg.
On to `COc1c(O)ccc2c(=O)cc(-c3ccc(CCCCNCCNCCCN)cc3)oc12` [SND211], for which the IC50 is 1.5 µM in the series on IMR-5-75; 1.8 µM in the series with NCI-H1299; less than 20 µM in the series on SK-OV-3 (Homo sapiens, SK-OV-3, SK-OV-3 ovarian carcinoma cell line); 10.6 µM with SK-OV-3 (SK-OV-3 ovarian carcinoma cell line); 5.3 µM in the series on MeWo; 1.8 µM in the series on A375. Further, the results for the IC50 with lung carcinoma cell and in the series on melanoma cell lines were less than 20 µM and less than 10 µM, respectively.
For `COc1c(O)ccc2c(=O)cc(-c3ccc(CCCCN(C)CCN4CCCCC4)cc3)oc12` [SND146, 7-Hydroxy-8-methoxy-2-(4-(4-(methyl(2-(piperidin-1-yl)ethyl)amino)butyl)phenyl)-4H-chromen-4-one], the IC50 in the series on CALU-6 was 17.2 µM; in the series on Panc-1 it was 1.2 µM; in the series with MIA-Pa-Ca-2 it was 0.87 µM; in the series on RXF 486 it was 0.4 µM; in the series with lung carcinoma cell, less than 20 µM; in series [3] it was less than 10 µM.

What is called MTD is the largest dose that counted as tolerated.
